In patent US5990170A, “Therapeutic use of mono and bicarboxylic acid amides active at the peripheral cannabinoid receptor” (Lifegroup S.p.A., priority 1994, dated 1999):
Like-named read-outs stand apart in the source and are kept apart here.

Columns and labels:
[1] = system: RBL-2H3 cells; assay: Inhibition of 3H-serotonin release induced by ADNP/DNP-HSA immunogenic stimulation in RBL-2H3 cells; type: cell-based, rat; settings: for 3H-serotonin net release inhibition (%): + anandamide (12.5 μM) (Table 4); for effect of anandamide co-incubation on the ability to inhibit serotonin release: co-incubation with anandamide, in words; for functional effect following receptor activation (serotonin release): result in words; for inhibition at 100 µM: 100 μM (Table 8); for EC50: 15 minutes release period (Table 9)
[2] = molecular target: T1, CB2 receptor (RBL-2H3 cell membranes) (Rattus norvegicus, UniProt Q9QZN9); assay: Competitive displacement of 3H-WIN 55,212-2 binding to RBL-2H3 cell membranes; settings: for inhibition at 10 µM: read-out: % Displacement
T1 construct: Preparation of Plasmatic Membranes of RBL-2H3 Cells; endogenous in cells; host or cells: RBL-2H3 (rat basophilic leukemia) cell membranes
T1 sequence (Q9QZN9 1-360): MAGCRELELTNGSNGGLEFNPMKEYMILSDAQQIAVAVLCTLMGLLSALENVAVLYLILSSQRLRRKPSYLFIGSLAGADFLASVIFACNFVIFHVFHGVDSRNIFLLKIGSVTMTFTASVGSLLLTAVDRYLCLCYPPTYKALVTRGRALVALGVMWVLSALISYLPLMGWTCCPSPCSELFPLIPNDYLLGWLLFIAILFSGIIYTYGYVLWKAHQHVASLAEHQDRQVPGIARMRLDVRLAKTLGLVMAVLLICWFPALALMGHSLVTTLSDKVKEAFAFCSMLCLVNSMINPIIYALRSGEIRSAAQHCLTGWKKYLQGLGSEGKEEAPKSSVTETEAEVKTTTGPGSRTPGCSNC
Protocol: RBL-2H3 cells (100×10^6), frozen at -80° C., were thawed with 4 ml of Tris-HCl buffer solution 50 mM (pH 7.4), added with 0.25% w/v of Tripsin inhibitor, TYPE II-S: SOY BEAN® (distributed by Sigma). The cells were resuspended in the buffer and homogenized. The homogenate was centrifuged at 1500×g at 4° C. for 10 min. The supernatant obtained was collected and the precipitate was resuspended in 4 ml of the previous buffer. The resuspended precipitate was homogenized and centrifuged again at 1500×g at 4° C. for 5-10 min. The resulting supernatant was combined to the supernatant previously obtained and centrifuged at 5000×g for 10 min. After centrifugation, the supernatant was collected and further centrifuged at 40,000×g at 4° C. for 30 min. The resulting precipitate was resuspended in 0.5 ml of the buffer solution described above, with addition of 1% Bovine Serum Albumin fatty acid free. The obtained suspension was centrifuged at 40,000×g at 4° C. for 30 min. The resulting precipitate was collected and resuspended in buffer solution containing 50 mM Tris HCl, 1 mM Tris-EDTA, 3 mM MgCl2, pH 7.4, in order to obtain a proteic concentration of 1 μg/μl approx. This preparation may be used fresh, or frozen at -80° C. and utilized within few days.
Non-radioactive WIN 55,212-2 (1 μM) was used to inhibit specific binding. […] The competitors were added to the binding mixture prior to the labelled ligand. In both cases, for an evaluation of the reference specific binding, ethanol and DMSO were added at the same final concentration to the total binding and to the aspecific one, also in the absence of competitors.
WIN 55,212-2 was used at a concentration of 3 μM, whereas the other compounds were used at a concentration of 10 μM.
Incubation was carried out in the presence of 1% DMSO. The values of Inhibitory Concentration 50 (IC50) are expressed as means ± SEM, after the number of experiments reported hereinbelow.

[3] = Solubility in water and organic solvents; settings: for solubility in water: result in words
[4] = molecular target: T1, CB2 receptor (RBL-2H3 cell membranes); assay: Competitive displacement of 3H-WIN 55,212-2 binding to RBL-2H3 cell membranes; settings: competitor 10 μM; 0.1% DMSO
[5] = Rattus norvegicus, RBL-2H3, 0.25 h, 0.1% DMSO and 0.1% ethanol (Table 3), read-out: 3H-serotonin net release (%)
[6] = dmso, organic solvent or mixture
[7] = ethanol, organic solvent or mixture
[8] = Rattus norvegicus, RBL-2H3, 0.25 h, 0.1% DMSO and 0.1% ethanol (Table 3), read-out: ED50 (the source's name)
[9] = Rattus norvegicus, RBL-2H3, read-out: 3H-serotonin net release inhibition (%)
[10] = read-out: ED50, inhibition of 3H-serotonin release, + anandamide (12.5 μM) (Table 5), 15 min
[11] = Rattus norvegicus, RBL-2H3, read-out: 3H-serotonin release inhibition %, 0.2% DMSO
[12] = Rattus norvegicus, RBL-2H3, read-out: 3H-serotonin release inhibition %, 1% DMSO
[13] = Rattus norvegicus, RBL-2H3, read-out: EC50, concentration inhibiting by 50% the net release of 3H serotonin, 0.2% DMSO
[14] = Rattus norvegicus, RBL-2H3, read-out: EC50, concentration inhibiting by 50% the net release of 3H serotonin, 1% DMSO
[15] = chloroform, organic solvent or mixture

Structure (SMILES)	inhibition at 10 µM [2] [%]	solubility [3, 6] [µg/mL]	solubility [3, 7] [µg/mL]	solubility in water [3]	IC50 [1, 10] [µM]	inhibition at 100 µM [1, 12] [%]	EC50 [1, 13] [µM]	also measured
CCCCCC/C=C\CCCCCCCC(=O)NCCO [Example 19, N-(2-hydroxyethyl)-palmitoleylamide]	100	> 10000	> 10000	scarcely soluble				activity at 100 µM [1, 5]: 100%
CCCCCCCCCCCCCCCC(=O)N[C@@H](CO)c1ccccc1 [Example 1, N-palmitoyl-[(R)-2-amino-2-phenylethanol]]	77	> 10000	> 10000	scarcely soluble	4			3H-serotonin net release inhibition (%) ([1]; 3 μM): 39%; activity at 3 µM ([1]; Rattus norvegicus, RBL-2H3, 0.25 h, 3 μM, 0.1% DMSO and 0.1% ethanol (Table 3), read-out: 3H-serotonin net release (%)): 0%; IC50 [1, 8]: 0.6 µM; inhibition at 3 µM [1, 9]: 100%; effect of anandamide co-incubation on the ability to inhibit serotonin release [1]: reduces the ability; functional effect following receptor activation (serotonin release) [1]: can inhibit the effects induced by mast cell activation and exert an effect that is higher than or comparable to the one of cannabinoids; IC50 [2]: 0.0004 µM; Specific binding [4]: 325
C=C(C)[C@@H]1CCC(C)=C[C@H]1c1c(O)cc(CCCCC)cc1O [Cannabidiol, cannabidiol, reference compound]								IC50 [2]: > 1 µM
CCCCCCC(C)(C)c1cc(O)c2c(c1)OC(C)(C)[C@@H]1CCC(=O)C[C@@H]21 (relative stereo) [Nabilone, 3-(1,1-dimethylheptyl)-6,6a,7,8,10,10a-hexahydro-1-hydroxy-6,6-dimethyl-9H-dibenzo-[b,d]-pyran-9-one, reference compound]	100				5			3H-serotonin net release inhibition (%) ([1]; 5 μM): 50%; activity at 10 µM ([1]; Rattus norvegicus, RBL-2H3, 0.25 h, read-out: 3H-serotonin net release (%)): 0%; IC50 ([1]; Rattus norvegicus, RBL-2H3, 0.25 h, read-out: ED50): 2.8 µM; inhibition at 5 µM ([1]; Rattus norvegicus, RBL-2H3, read-out: 3H-serotonin net release inhibition (%), 5 μM, - anandamide (Table 4)): 90%; functional effect following receptor activation (serotonin release) [1]: able to inhibit, in a concentration-dependent way, RBL cells immunogenic activation; IC50 [2]: 0.0026 ± 0.0014 µM; binding to the peripheral receptor ([2]; result in words): able to bind to the receptor and to compete
CCCCCCCCCCCCCCCC(=O)NCCOP(=O)(O)O [Example 27, N-palmitoylethanolamide phosphate]	42	> 10000		scarcely soluble	9.5			3H-serotonin net release inhibition (%) ([1]; 7.5 μM): 46%; activity at 7.5 µM ([1]; Rattus norvegicus, RBL-2H3, 0.25 h, 7.5 μM, 0.1% DMSO and 0.1% ethanol (Table 3), read-out: 3H-serotonin net release (%)): 0%; IC50 [1, 8]: 3.8 µM; inhibition at 7.5 µM [1, 9]: 100%; functional effect following receptor activation (serotonin release) [1]: can inhibit the effects induced by mast cell activation and exert an effect that is higher than or comparable to the one of cannabinoids; IC50 [2]: 0.0076 µM; Specific binding [4]: 843; solubility ([3]; phosphate buffer, pH 7.4, aqueous buffer): > 1000 µg/mL
O=C(/C=C/CCCCCCCCC(=O)NCCO)NCCO [Example 26, N,N'-bis(2-hydroxyethyl)-trans-2-dodecenediamide]	72	> 10000	> 10000		50	> 95		3H-serotonin net release inhibition (%) ([1]; 50 μM): 48%; activity at 50 µM ([1]; Rattus norvegicus, RBL-2H3, 0.25 h, 50 μM, 0.1% DMSO and 0.1% ethanol (Table 3), read-out: 3H-serotonin net release (%)): 21%; IC50 [1, 8]: 28 µM; inhibition at 100 µM [1, 11]: > 95%; inhibition at 50 µM [1, 9]: 79%; Specific binding [4]: 402; solubility ([3]; water): > 10000 µg/mL
CCCCCCCCCCCC(=O)NCCO [Example 22, N-(2-hydroxyethyl)-lauroylamide]	72	> 10000		scarcely soluble		91	35	inhibition at 100 µM [1, 11]: 100%; EC50 [1, 14]: 11 µM; IC50 ([2]; RBL-2H3 cell membranes, 1% DMSO, means ± SEM): 0.0181 µM; solubility [3, 15]: > 10000 µg/mL
CCCCCCCCCCCCCCCC(=O)NC[C@@H](C)O [Example 32, N-palmitoyl-[R(-)-1-amino-2-propanol]]			> 5000	scarcely soluble			0.73	
CCCCCCCCCCCC(=O)NCCCCO [Example 18, N-(4-hydroxybutyl)-lauroylamide]		> 10000	> 10000	scarcely soluble			63	
C=CCCCCCCCCC(=O)NCCO [Example 28, N-(2-hydroxyethyl)-10-undecenoylamide]	77	> 10000	> 10000	scarcely soluble				activity at 100 µM [1, 5]: 100%
CCCCCCCCCCCCCCCC(=O)NCCCO [Example 24, N-(3-hydroxypropyl)-palmitamide]		> 3000		scarcely soluble		88		activity at 60 µM ([1]; Rattus norvegicus, RBL-2H3, 0.25 h, 60 μM, 0.1% DMSO and 0.1% ethanol (Table 3), read-out: 3H-serotonin net release (%)): 67%; inhibition at 60 µM ([1]; Rattus norvegicus, RBL-2H3, read-out: 3H-serotonin release inhibition %, 0.2% DMSO, 60 μM (Table 8)): 40%; EC50 [1, 14]: 7.2 µM; solubility ([3]; n-octanol, organic solvent or mixture): > 10000 µg/mL
CCCCCCCCCCCCCCCC(=O)N[C@@H](CO)[C@@H](O)c1ccccc1 [Example 4, N-palmitoyl-[(1S,2S)-(+)-2-amino-1-phenyl-1,3-propanediol]]		> 10000	> 10000	scarcely soluble		100	78	inhibition at 100 µM [1, 11]: 100%; EC50 [1, 14]: 1.05 µM
CCCCCCCCCCCCCCCC(=O)N[C@@H](C)CO [Example 31, N-palmitoyl-[S(+)-2-amino-1-propanol]]		> 5000	> 10000	scarcely soluble			7.7	
CCCCCCCCCCCCCCCC(=O)N[C@@H](CO)Cc1ccccc1 [Example 10, N-palmitoyl-[(R)-(+)-2-amino-3-phenyl-1-propanol]]				scarcely soluble				activity at 100 µM [1, 5]: 0%; effect of anandamide co-incubation on the ability to inhibit serotonin release [1]: reduces the ability; solubility [3, 15]: > 10000 µg/mL
CCCCCCCCCCCCCCCC(=O)N[C@@H](C)[C@H](O)c1ccccc1 [Example 7, N-palmitoyl-[(1R,2S)-(-)-norephedrine]]		> 10000	> 10000	scarcely soluble		100	4.7	inhibition at 30 µM ([1]; Rattus norvegicus, RBL-2H3, read-out: 3H-serotonin release inhibition %, 0.2% DMSO, 30 μM (Table 8)): 93%
CCCCCCCCCCCC(=O)NCCCO [Example 12, N-(3-hydroxypropyl)-lauroylamide]		> 10000	> 10000	scarcely soluble	29	100	44	inhibition at 100 µM [1, 11]: 86%; EC50 [1, 14]: 1.1 µM; IC50 ([1]; read-out: ED50, inhibition of 3H-serotonin release, - anandamide (Table 5), 15 min): 1.1 µM
